A word on the inhibition: it is the share of the control response that was lost under treatment.

Molecules are shown by their SMILES.

One test deals with T1, 5α-Reductase (Homo sapiens, UniProt P18405).
T1 construct: host or cells: Hs68 human genital skin fibroblasts
T1 sequence (P18405 1-259): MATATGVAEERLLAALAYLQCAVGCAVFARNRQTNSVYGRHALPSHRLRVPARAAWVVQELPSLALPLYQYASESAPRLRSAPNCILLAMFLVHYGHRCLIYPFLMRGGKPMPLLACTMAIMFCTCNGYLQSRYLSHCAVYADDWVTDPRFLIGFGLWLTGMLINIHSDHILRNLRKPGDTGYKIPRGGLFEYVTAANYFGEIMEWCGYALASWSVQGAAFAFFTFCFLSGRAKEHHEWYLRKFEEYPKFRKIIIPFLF
The test can be described thus: Inhibition of 5α-reductase in Hs68 human genital skin fibroblasts (conversion of labelled testosterone, TLC). The test is classed as cell-based. The conditions noted are these: 1.0 μM test compound; Hs68 cells; 12 μM testosterone; 4 h; read-out: % Inhibition. The method, then: Cell Culture: 5α-Reductase activity was measured using Hs68 human genital skin fibroblasts which were originally purchased from the American Type Culture Collection (Rockville, Md.). The cells were grown in Dulbecco's Modified Eagle's Medium (DMEM) plus 10% stripped fetal bovine serum which was supplemented with amphotericin B (0.25 μg/ml) and gentamicin (25.0 μg/ml) (GIBCO, Grand Island, N.Y.). The serum was stripped of endogenous steroids by incubation with dextran-coated charcoal prior to its addition to the media. The cells were maintained at 37° C. in an atmosphere of 95% air, 5% CO2 and were passaged every 7-10 days by exposure to a trypsin-EDTA solution (0.025% trypsin, 0.265 mM EDTA). Prior to the assay the Hs68 cells were harvested and plated in Falcon 6-well plates (Becton Dickinson Labware, Lincoln Park, N.J.) at a density of 6×10^4 cells per well. The cells were allowed to grow for 4-5 days or until they reached approximately 80% confluence.
Assay Method I: The substrate was prepared by dissolving unlabeled testosterone (Sigma Chemical Co., St. Louis, Mo.) in absolute ethanol followed by the addition of [7-^3 H (N)]-testosterone (23.3 Ci/mmole, New England Nuclear, Boston, Mass.). The steroid solution was taken to dryness under a stream of nitrogen and then reconstituted in media.
Assay Method II: The substrate used for this method was [^14 C]-testosterone (50 mCi/mmol) (New England Nuclear, Boston, Mass.). An aliquot of the substrate was taken to dryness under a stream of nitrogen. After the addition of 30 μl of ethanol, the testosterone was brought up in an appropriate volume of media.
Sample Preparation: The test compounds were dissolved in absolute ethanol in order to achieve the desired concentration. Subsequent dilutions of the test compounds with media were performed by the Biomek 1000 Automated Laboratory Workstation (Beckman Instruments, Palo Alto, Calif.). The existing media in the sample wells was aspirated and replaced with fresh media. Test compound was then added to the wells followed by the addition of 0.5 ml of the substrate. The volume of the incubation mixture was maintained at 2.0 ml. The final substrate concentration was 12 μM. The concentration of the test compounds ranged from 0.001-15 μM. An additional three wells (background) containing media and substrate but no cells were also included to account for the non-enzymatic metabolism of the substrate. The plates were returned to the incubator and incubated for four hours.
At the end of the incubation the media was collected and transferred to an extraction tube containing 5 ml of tolueneethanol (9:1), to which has been added 40-250 μg each of unlabeled carrier steroids (estriol, estradiol, estrone, 5α-androstan-3α,17β-diol, 5α-androstan-3β,17β-diol, 4-androstene-3,17-dione, 5α-androstan-3,17-dione, testosterone, and 5α-dihydrotestosterone) (Steraloids, Inc. Wilton, N.H.). In the case of Assay Method I the extraction tube also contained 1,000 and 10,000 dpm of [4-^14 C]-dihydrotesterone (50-60 mCi/mmol) and [4-^14 C]-testosterone (50 mCi/mmol) (New England Nuclear, Boston, Mass.), respectively. The [^14 C]-steroids were included as recovery standards to quantify procedural losses. A small amount of NaCl was also added to the extraction tubes to prevent foaming. The samples were vortexed for approximately 30 seconds and then centrifuged for 10 minutes at 500×g. The organic phase was collected and the samples taken to dryness, redissolved in dichloromethane-methanol (9:1) and were analyzed by thin layer chromatography using one of the methods described below.
Regarding `CN1C(=O)CCC2=C1CCc1c(F)cccc12` [Example 19, 7-fluoro-4-methyl-1,2,3,4,5,6-hexahydrobenzo[f]quinolin-3-one], the inhibition at 1 µM amounted to 61%.

On to `O=C1CCC2=C(CCc3cc(F)ccc32)N1Cc1ccccc1` [Example 23, 8-fluoro-4-benzyl-1,2,3,4,5,6-hexahydrobenzo[f]quinolin-3-one], for which the inhibition at 1 µM is 37%.

In the case of `O=C1CCC2=C(CCc3cccc(Br)c32)N1` [Example 16, 10-bromo-1,2,3,4,5,6-hexahydrobenzo[f]quinolin-3-one], the inhibition at 1 µM is 14%.

For the molecule `Cc1cccc2c1C1=C(CC2)NC(=O)CC1` [Example 29, 10-methyl-1,2,3,4,5,6-hexahydrobenzo[f]quinolin-3-one], the inhibition at 1 µM is 41%.

Consider `CCN1C(=O)CCC2=C1CCc1cc(F)ccc12` [Example 24, 8-fluoro-4-ethyl-1,2,3,4,5,6-hexahydrobenzo[f]quinolin-3-one], for which the inhibition at 1 µM came to 31%.

Regarding `CN1C(=O)CCC2=C1CCc1ccc(F)cc12` [Example 21, 9-fluoro-4-methyl-1,2,3,4,5,6-hexahydrobenzo[f]quinolin-3-one], the inhibition at 1 µM was determined as 60%.

For `CN1C(=O)CCC2=C1CCc1cccc(F)c12` [Example 22, 10-fluoro-4-methyl-1,2,3,4,5,6-hexahydrobenzo[f]quinolin-3-one], the inhibition at 1 µM came out at 35%.

As to `COc1cccc2c1C1=C(CC2)NC(=O)CC1` [Example 27, 10-methoxy-1,2,3,4,5,6-hexahydrobenzo[f]quinolin-3-one], the inhibition at 1 µM was 0%.

Take `COc1ccc2c(c1)C1=C(CC2)NC(=O)CC1` [Example 26, 9-methoxy-1,2,3,4,5,6-hexahydrobenzo[f]quinolin-3-one]: the inhibition at 1 µM amounted to 12%.

On to `COc1cc2c(cc1OC)C1=C(CC2)NC(=O)CC1` [Example 28, 8,9-dimethoxy-1,2,3,4,5,6-hexahydrobenzo[f]quinolin-3-one], for which the inhibition at 1 µM worked out at 33%.

With `CN1C(=O)CCC2=C1CCc1ccccc12` [Example 7, 4-methyl-1,2,3,4,5,6,-hexahydrobenzo[f]quinolin-3-one], the inhibition at 1 µM is 48%.

Turning to `O=C1CCC2=C(CCc3cccc(Cl)c32)N1` [Example 17, 10-chloro-1,2,3,4,5,6-hexahydrobenzo[f]quinolin-3-one], the inhibition at 1 µM was found to be 0.3%.

As for `O=C1CCC2=C(CCc3cc(Cl)ccc32)N1` [Example 10, 8-chloro-1,2,3,4,5,6-hexahydrobenzo[f]quinolin-3-one], the inhibition at 1 µM came to 81%.

Turning to `COc1ccc2c(c1)CCC1=C2CCC(=O)N1` [Example 11, 8-methoxy-1,2,3,4,5,6-hexahydrobenzo[f]quinolin-3-one], the inhibition at 1 µM was found to be 20%.

Take `O=C1CCC2=C(CCc3c(F)cccc32)N1` [Example 18, 7-fluoro-1,2,3,4,5,6-hexahydrobenzo[f]quinolin-3-one]: the inhibition at 1 µM was 36%.

Staying with this test, now noted: Hs68.
`O=C1CCC2=C(CCc3cccc(F)c32)N1` [Example 20, 10-fluoro-1,2,3,4,5,6-hexahydrobenzo[f]quinolin-3-one] displayed an inhibition at 1 µM of 22%.
